# Patent US7345058B2, “Pyrazoles” (Hoffmann-La Roche Inc., priority 2005, dated 2008)
# Target: Purified human HSD1 (Homo sapiens, UniProt P28845)
# Test: In vitro inhibition of 11β-HSD1 (time-resolved fluorescence, cortisone to cortisol)
# Assay type: biochemical
# Conditions: purified human HSD1, cortisone substrate, incubated at 37° C. for 30 min
# Experimental: Purified human HSD1 was diluted in 50 mM Tris-HCl, 100 mM NaCl, 0.1 mg/ml BSA, 0.02% Lubrol, 20 mM MgCl2, 10 mM glucose 6-phosphate, 0.4 mM NADPH, 60 U/ml glucose 6-phosphate dehydrogenase to a concentration of 1.5 ug/ml (Enzyme Solution). Cortisone (100 uM) in DMSO was diluted to 1 uM with 50 mM Tris-HCl, 100 mM NaCl (Substrate Solution). Testing compounds (40 uM) in DMSO were diluted 3 fold in series in DMSO and further diluted 20 fold in Substrate Solution. Enzyme Solution (10 ul/well) was added into 384 well microtiter plates followed by diluted compound solutions (10 ul/well) and mixed well. Samples were then incubated at 37° C. for 30 min. EDTA/biotin-cortisol solution (10 ul/well) in 28 mM EDTA, 100 nM biotin-cortisol, 50 mM Tris-HCl, 100 mM NaCl was then added followed by 5 ul/well of anti-cortisol antibody (3.2 ug/ml) in 50 mM Tris-HCl, 100 mM NaCl, 0.1 mg/ml BSA and the solution was incubated at 37° C. for 30 min. Five ul per well of Eu-conjugated anti-mouse IgG (16 nM) and APC-conjugated streptavidin (160 nM) in 50 mM Tris-HCl, 100 mM NaCl, 0.1 mg/ml BSA were added and the solution was incubated at room temperature for 2 hours. Signals were quantitated by reading time-resolved fluorescence on a Victor 5 reader (Wallac).
# Percent inhibition of HSD 1 activity by an agent at various concentrations was calculated by the formula % Inhibition=100*[1−(Fs−Fb)/(Ft−Fb)], where: • Fs is the fluorescence signal of the sample which included the agent, • Fb is the fluorescence signal in the absence of HSD1 and agent, • Ft is the fluorescence signal in the presence of HSD1, but no agent.
# The inhibitory activities of test compounds were determined by the IC50s, or the concentration of compound that gave 50% inhibition.
# Purified human HSD1, sequence (P28845 whole entry): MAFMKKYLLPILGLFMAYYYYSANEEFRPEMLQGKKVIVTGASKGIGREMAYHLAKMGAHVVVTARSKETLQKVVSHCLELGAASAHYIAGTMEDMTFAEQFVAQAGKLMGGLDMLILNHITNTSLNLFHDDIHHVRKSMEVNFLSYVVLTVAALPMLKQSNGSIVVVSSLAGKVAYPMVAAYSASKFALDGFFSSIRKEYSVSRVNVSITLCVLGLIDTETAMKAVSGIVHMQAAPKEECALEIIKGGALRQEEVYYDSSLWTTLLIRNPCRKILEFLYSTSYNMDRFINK
row,Structure (SMILES),IC50
1,"CC(C)c1cccc(-c2c(C(=O)N3CCCC4CCCCC43)cnn2C)c1 (stereo not shown) [Example 12, [5-(3-Isopropyl-phenyl)-1-methyl-1H-py-razol-4-yl]-(octa-hydro-quinolin-1-yl)-meth-anone]",59 nM
2,CSc1ccc(-c2c(C(=O)N3CCCC4CCCCC43)cnn2C)cc1 (stereo not shown) [Example 33],78 nM
3,Cn1ncc(C(=O)N2CCC(Cl)C3CCCCC32)c1-c1ccccc1 (stereo not shown) [Example 36],600 nM
4,"Cn1ncc(C(=O)N2CCCC3CCCCC32)c1-c1ccc(F)c(Cl)c1 (stereo not shown) [Example 39, [5-(3-Chloro-4-fluoro-phenyl)-1-meth-yl-1H-pyrazol-4-yl]-(octa-hydro-quinolin-1-yl)-meth-anone]",208 nM
5,"Cn1ncc(C(=O)N2CCCC3CCCCC32)c1-c1cccc(C(F)(F)F)c1 (stereo not shown) [Example 49, [1-Methyl-5-(3-tri-fluoromethyl-phenyl)-1H-py-razol-4-yl]-(octa-hydro-quinolin-1-yl)-meth-anone]",160 nM
6,"Cn1ncc(C(=O)N2CCCC3CCCCC32)c1-c1ccc(C(F)(F)F)c(Cl)c1 (stereo not shown) [Example 52, [5-(3-Chloro-4-tri-fluoromethyl-phenyl)-1-meth-yl-1H-pyra-zol-4-yl]-(octa-hydro-quinolin-1-yl)-meth-anone]",195 nM
7,"Cn1ncc(C(=O)N2CCCC3CCCCC32)c1-c1ccc([N+](=O)[O-])cc1 (stereo not shown) [Example 55, [1-Methyl-5-(4-ni-tro-phenyl)-1H-pyra-zol-4-yl]-(octa-hydro-quinolin-1-yl)-methanone]",552 nM
8,"Cn1ncc(C(=O)N2CCCC3CCCCC32)c1-c1cccc(O)c1 (stereo not shown) [Example 59, [5-(3-Hydroxy-phe-nyl)-1-methyl-1H-pyra-zol-4-yl]-(octa-hydro-quinolin-1-yl)-meth-anone]",700 nM
9,"Cn1ncc(C(=O)N2CCCC3CCCCC32)c1-c1ccc(CO)cc1 (stereo not shown) [Example 67, [5-(4-Hydroxy-methyl-phenyl)-1-meth-yl-1H-pyra-zol-4-yl]-(octa-hydro-quinolin-1-yl)-meth-anone]",121 nM
10,"Cn1ncc(C(=O)NC2CCCCCCC2)c1-n1cccc1 [Example 96, 1-Methyl-5-pyrrol-1-yl-1H-py-razole-4-carboxylic acidcyclooctylamide]",58 nM
11,"Cn1ncc(C(=O)N2CCCC(Cc3ccccc3)C2)c1-n1cccc1 (stereo not shown) [Example 106, (3-Benzyl-piperidin-1-yl)-(1-meth-yl-5-pyrrol-1-yl-1H-py-razol-4-yl)-methanone]",1480 nM

# The remaining molecules from weak to strong by IC50, led by results:
row,IC50,Structure (SMILES)
1,1000 nM,"Cn1ncc(C(=O)N2CCCC3CCCCC32)c1-c1cccc(C=O)c1 (stereo not shown) [Example 21, 3-[2-Methyl-4-(octa-hydro-quinoline-1-carbo-nyl)-2H-pyra-zol-3-yl]-benzaldehyde]"
2,260 nM,"CCC1CCCCN1C(=O)c1cnn(C)c1-c1ccccc1 (stereo not shown) [Example 107, (2-Ethyl-piperidin-1-yl)-(1-meth-yl-5-phe-nyl-1H-pyrazol-4-yl)-methanone]"
3,189 nM,Cn1ncc(C(=O)N2CCCC3CCCCC32)c1-c1cnc2ccccc2c1 (stereo not shown) [Example 19]
4,38 nM,"Cc1c(Cl)cccc1-c1c(C(=O)N2CCCC3CCCCC32)cnn1C (stereo not shown) [Example 46, [5-(3-Chloro-2-meth-yl-phenyl)-1-meth-yl-1H-pyrazol-4-yl]-(octa-hydro-quinolin-1-yl)-meth-anone]"
5,21 nM,"CCOc1ccc(-c2c(C(=O)N3CCCC4CCCCC43)cnn2C)c(Cl)c1 (stereo not shown) [Example 82, [5-(2-Chloro-4-eth-oxy-phenyl)-1-meth-yl-1H-pyrazol-4-yl]-(octa-hydro-quinolin-1-yl)-meth-anone]"
